Assay [1] relates to P. gingivalis conditioned medium (P.g. C.M.). More on the design: species or system Porphyromonas gingivalis. Conditions: for increase in fluorescence in the P. gingivalis conditioned medium (P.g. C.M.): compared to the basic TSB media. From the text: (§1) Specifically, P. gingivalis is known to secrete gingipain (Kgp, Rgp) and outer membrane vesicles (OMVs) (FIG. 1A). Causative bacteria of periodontitis, i.e., P. gingivalis, F. nucleatum, and A. actinomycetecomitans, were observed using a scanning electron microscope (SEM) (FIG. 1B). Afterward, the conditioned media (C.M.) were isolated (FIG. 1C).
(§2) Therefore, the present inventors screened 24 types of thiol-reactive fluorescent compound libraries using the conditioned media. Here, four types of thiol-reactive MitoTrackers were used as control materials.
(§3) After culturing living P. gingivalis, F. nucleatum, and A. actinomycetecomitans with the fluorescent compound DTC630, and MitoTracker™ Red, cell-specific fluorescence reactions were compared.

Assay [2] concerns F. nucleatum conditioned medium (F.n. C.M.). In words: Fluorescence reaction in F. nucleatum conditioned medium. Conditions: compared to the basic TSB media.
Source text: as §1, §2, §3

The subject of assay [3] is A. actinomycetecomitans conditioned medium (A.a C.M.). In words: Fluorescence reaction in A. actinomycetecomitans conditioned medium. Conditions: compared to the basic TSB media.
Source text: as §1, §2, §3

For assay [4], the system named is Kgp. In words: Fluorescence spectrum after culture with Kgp. The format is binding, P. gingivalis. Conditions: 10 μM, λex=425 nm; for detection of Kgp (fluorescence compared to PBS), in words: λem=450-700 nm. Here is the method: (§4) Specifically, after the gingipains (Kgp and Rgp) secreted from P. gingivalis, calpain, which is a cysteine protease, and trypsin, which is a serine protease, were cultured with fluorescent compound DTC630 (10 μM), a fluorescence spectrum was measured (λex=425 nm, λem=450-700 nm).
(§5) In addition, the degree of fluorescence reaction of fluorescent compound DTC630 (1, 3, 10, 30, and 100 μM) was measured at each concentration for Kgp, Rgp, calpain, and trypsin (final concentration: 0.3 mg/mL).

Assay [5] has as its target Rgp (Porphyromonas gingivalis, UniProt P28784). The assay is described as follows: Fluorescence spectrum after culture with Rgp. Type of assay: binding, P. gingivalis. Conditions: 10 μM, λex=425 nm; for detection of Rgp (fluorescence compared to PBS), in words: λem=450-700 nm. Here is the method: as §4, §5
The subject of assay [6] is calpain. In words: Fluorescence spectrum after culture with calpain. The format is binding, human. To be noted: 10 μM, λex=425 nm; for detection of calpain (fluorescence compared to PBS), in words: λem=450-700 nm. Here is the method: as §4, §5
Assay [7] has as its system trypsin. The assay is described as follows: Fluorescence spectrum after culture with trypsin. The format is binding, human. To be noted: 10 μM, λex=425 nm; for detection of trypsin (fluorescence compared to PBS), in words: λem=450-700 nm. Here is the method:
as §4, §5

Structures are written as SMILES.

Three compounds from US20260219277A1, “NOVEL FLUORESCENT COMPOUND, AND COMPOSITION FOR DETECTING GINGIPAIN, COMPOSITION FOR DIAGNOSING PORPHYROMONAS GINGIVALIS INFECTION, OR ANTIBACTERIAL COMPOSITION AGAINST PORPHYROMONAS GINGIVALIS USING SAME” (priority 2023, published 2026) can be followed below.

Sequence of Rgp (P28784 228-991): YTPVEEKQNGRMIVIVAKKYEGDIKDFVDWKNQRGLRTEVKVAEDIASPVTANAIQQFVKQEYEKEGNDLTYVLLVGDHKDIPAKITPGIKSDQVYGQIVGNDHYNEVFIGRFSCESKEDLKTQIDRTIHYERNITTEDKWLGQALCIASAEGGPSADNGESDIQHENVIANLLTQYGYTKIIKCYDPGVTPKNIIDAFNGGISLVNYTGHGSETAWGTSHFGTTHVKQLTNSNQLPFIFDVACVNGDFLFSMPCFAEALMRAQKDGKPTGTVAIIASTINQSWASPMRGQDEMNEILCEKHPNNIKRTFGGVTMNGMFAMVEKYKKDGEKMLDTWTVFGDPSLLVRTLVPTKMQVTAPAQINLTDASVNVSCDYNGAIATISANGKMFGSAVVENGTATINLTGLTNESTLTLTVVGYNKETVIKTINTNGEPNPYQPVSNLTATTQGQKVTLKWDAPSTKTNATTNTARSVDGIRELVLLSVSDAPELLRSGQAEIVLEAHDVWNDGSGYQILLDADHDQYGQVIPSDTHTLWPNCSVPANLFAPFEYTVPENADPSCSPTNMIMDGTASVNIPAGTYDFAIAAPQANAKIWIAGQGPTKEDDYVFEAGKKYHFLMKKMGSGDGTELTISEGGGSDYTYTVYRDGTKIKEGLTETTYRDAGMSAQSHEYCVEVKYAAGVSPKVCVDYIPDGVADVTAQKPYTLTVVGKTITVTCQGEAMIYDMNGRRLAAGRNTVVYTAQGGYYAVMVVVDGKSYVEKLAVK

Regarding `CN(C)c1ccc(-c2ccc(/C=C(\C#N)c3nnn[nH]3)cc2)cc1` [DTC630, (E)-3-(4′-(dimethylamino)-[1,1′-biphenyl]-4-yl)-2-(1H-tetrazol-5-yl) acrylonitrile], the “increase in fluorescence in the P. gingivalis conditioned medium (P.g. C.M.)” value in assay [1] is 6.2±0.2 fold. For the same compound, in assay [2], the “increase in fluorescence in the F. nucleatum conditioned medium (F.n. C.M.)” value turned out to be 1.6±0.1 fold. The “increase in fluorescence in the A. actinomycetecomitans conditioned medium (A.a C.M.)” value in assay [3] turned out to be 1.5±0.1 fold.
As to `CN(C)c1ccc(-c2ccc(C=C(C#N)C#N)cc2)cc1` [DTC2352, 2-((4′-(dimethylamino)-[1,1′-biphenyl]-4-yl)methylene)malononitrile], the “selectivity of fluorescence reaction for P. gingivalis conditioned medium (library screen heatmap)” value in assay [1] (fluorescence magnification for TSB medium, screen of 24 thiol-reactive fluorescent compounds) was “does not exhibit a P. gingivalis-selective fluorescence reaction”. In addition, in assay [4], the “fluorescence increase for Kgp compared to PBS” value is on record as 3±0 fold and the “detection of Kgp (fluorescence compared to PBS), in words” value is “no increase in fluorescence”. Besides, the “detection of Rgp (fluorescence compared to PBS), in words” value in assay [5] was “no increase in fluorescence”. The “detection of calpain (fluorescence compared to PBS), in words” value in assay [6] is listed as “no increase in fluorescence”. In addition, in assay [7], the “detection of trypsin (fluorescence compared to PBS), in words” value is given as “no increase in fluorescence”.
Regarding `ClCc1ccc(C2=c3cc4c5c(c3Oc3c2cc2c6c3CCCN6CCC2)CCC[N+]=5CCC4)cc1.[Cl-]` [MitoTracker™ Red], in assay [1], the “increase in fluorescence in the P. gingivalis conditioned medium (P.g. C.M.)” value worked out at 5.6±0.6 fold. In addition, the “increase in fluorescence in the F. nucleatum conditioned medium (F.n. C.M.)” value in assay [2] came to 3.2±0.1 fold. For the same compound, in assay [3], the “increase in fluorescence in the A. actinomycetecomitans conditioned medium (A.a C.M.)” value came to 4.5±0.1 fold. In addition, in assay [4], the “fluorescence increase for Kgp compared to PBS” value worked out at 145±5 fold and the “detection of Kgp (fluorescence compared to PBS), in words” value is recorded as “increase in fluorescence”. Further, in assay [5], the “fluorescence increase for Rgp compared to PBS” value is recorded as 126±6 fold and the “detection of Rgp (fluorescence compared to PBS), in words” value was “increase in fluorescence”. In assay [6], the “fluorescence increase for calpain compared to PBS” value is listed as 163±1 fold and the “detection of calpain (fluorescence compared to PBS), in words” value is “increase in fluorescence”. Moreover, in assay [7], the “fluorescence increase for trypsin compared to PBS” value is reported as 93±9 fold and the “detection of trypsin (fluorescence compared to PBS), in words” value is listed as “increase in fluorescence”.
